# Legend:
# [1] = molecular target: T1, human tissue antigen 0201 (HLA-A0201) (Homo sapiens, UniProt P04439, D140Y/D185E/D98H/E176V/E277Q/G131W/G231S/I119V/I121R/I166T/I218V/L300P/L318F/N151K/N90K/P208A/P217A/Q86G/Q94H/R138H/R169H/T345S); assay type: cell-based
# T1 construct: T2 cell line is a cell line lacking of the transporters associated with antigen processing (TAP), TAP1 and TAP2; endogenous in cells; host or cells: T2 cell line (TAP1/TAP2-deficient)
# [2] = tested on: spleen lymphocytes expressing simultaneously CD8+ and IFN-γ+; set-up: species or system C57BL/6 mice transgenic for human tissue antigen 0201; conditions: in vivo
Sequence,"binding to human tissue antigen 0201 on T2 cells (HLA-A2 expression, median fluorescence intensity) [1]",relative binding ability among peptides S1-S10 in the T2 cell binding test [1],induction of antigen-specific cytotoxicity (lymphocytes expressing simultaneously CD8+ and IFN-γ+) [2],induction of cytotoxicity by vaccine containing peptide (proportion of spleen lymphocytes expressing CD8+ and IFN-γ+) [2]
ILPDPLKPT [S6],could bind to the human tissue antigen 0201,strongest binding ability,could induce cytotoxicity,could induce cytotoxicity
NLNESLIDL [S1],could bind to the human tissue antigen 0201,–,–,–
VLNDILSRL [S4],could bind to the human tissue antigen 0201,–,–,–
VLYENQKQI [S5],could bind to the human tissue antigen 0201,–,–,–
VVFLHVTYV [S2],could bind to the human tissue antigen 0201,strongest binding ability,could induce cytotoxicity,could induce cytotoxicity

# Reference: patent US20060128628A1, “Human tissue antigen-binding peptides and their amino acid sequences” (priority 2004, published 2006)
